From ChEMBL document CHEMBL1201862, “PubChem BioAssay data set” (2004)
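A five-concentration, 48-hour dose response in 96-well plates underlies each endpoint, interpolated linearly between surrounding concentrations. GI50 is the concentration that inhibits growth by half.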 Activity calls are given as the source filed them. Rule as the data show it: active = GI50 up to about 1.1 µM and inactive = higher.

Tests used:
Assay in all cases: inhibition of tumour cell growth, NCI panel, 48 h
Malme-3M = test system: Malme-3M
NCI-H226 = test system: NCI-H226
MOLT-4 = test system: MOLT-4
OVCAR-4 = test system: OVCAR-4
ACHN = test system: ACHN
SN12C = test system: SN12C
LOX IMVI = test system: LOX IMVI
SK-MEL-28 = test system: SK-MEL-28
SNB-19 = test system: SNB-19
M14 = test system: M14
M19-MEL = test system: M19-MEL
A498 = test system: A498
OVCAR-8 = test system: OVCAR-8
SNB-75 = test system: SNB-75
CAKI-1 = test system: CAKI-1
SF-539 = test system: SF-539
SR = test system: SR
DMS-114 = test system: DMS-114

Measured: GI50

N#CCCN(c1ccc(/C=N/c2ccc(C(=O)O)cc2)cc1)S(=O)(=O)c1ccccc1
inactive: Malme-3M > 100 µM | NCI-H226 > 100 µM | MOLT-4 > 100 µM | OVCAR-4 > 100 µM | ACHN > 100 µM | SN12C > 100 µM | LOX IMVI > 100 µM | SK-MEL-28 > 100 µM | SNB-19 > 100 µM | M14 > 100 µM | M19-MEL > 100 µM | A498 > 100 µM | OVCAR-8 > 100 µM | SNB-75 > 100 µM | CAKI-1 > 100 µM | SF-539 > 100 µM | SR > 100 µM | DMS-114 > 100 µM

CC(C)C(=O)NC(=S)Nc1ccc([N+](=O)[O-])cc1C#N
inactive: Malme-3M > 100 µM | NCI-H226 25.1 µM | MOLT-4 > 100 µM | OVCAR-4 > 100 µM | ACHN > 100 µM | SN12C 22 µM | LOX IMVI > 100 µM | SK-MEL-28 > 100 µM | SNB-19 > 100 µM | M14 > 100 µM | M19-MEL > 100 µM | A498 > 100 µM | OVCAR-8 > 100 µM | SNB-75 16.7 µM | CAKI-1 66.2 µM | SF-539 > 100 µM | SR > 100 µM | DMS-114 > 100 µM

Cc1c(Cl)ccc2c1NC(=O)C2(O)C(C(=O)c1ccccc1)c1ccccc1 (configuration not stated)
inactive: Malme-3M 93.3 µM | NCI-H226 88.5 µM | MOLT-4 22.9 µM | OVCAR-4 10.7 µM | ACHN 72.4 µM | SN12C 76.6 µM | LOX IMVI 44.2 µM | SK-MEL-28 94.6 µM | SNB-19 62.8 µM | M14 > 100 µM | M19-MEL 14.7 µM | A498 24 µM | OVCAR-8 69.7 µM | SNB-75 46.7 µM | CAKI-1 58.3 µM | SF-539 74.6 µM | SR 27.3 µM | DMS-114 21.9 µM

Clc1ccc(OCc2nnc3n2N=C(c2ccccc2)CS3)c(Cl)c1
inactive: Malme-3M > 100 µM | NCI-H226 9.84 µM | MOLT-4 3.23 µM | OVCAR-4 50.9 µM | ACHN 29 µM | LOX IMVI 1.64 µM | SK-MEL-28 > 100 µM | SNB-19 3.78 µM | M14 > 10 µM | M19-MEL > 100 µM | A498 2.24 µM | OVCAR-8 7.33 µM | SNB-75 3.02 µM | CAKI-1 7.33 µM | SF-539 12.6 µM | SR 4.73 µM | DMS-114 > 100 µM

Cc1ccc(NC(=O)CCCC(=O)CC(=O)c2ccc(Br)cc2)cc1
inactive: Malme-3M > 100 µM | NCI-H226 > 100 µM | MOLT-4 > 100 µM | OVCAR-4 > 100 µM | ACHN > 100 µM | SN12C > 100 µM | LOX IMVI > 100 µM | SK-MEL-28 > 100 µM | SNB-19 > 100 µM | M14 > 100 µM | M19-MEL > 100 µM | A498 > 100 µM | OVCAR-8 > 100 µM | SNB-75 34.4 µM | CAKI-1 > 100 µM | SF-539 > 100 µM | SR > 100 µM | DMS-114 > 100 µM

Cc1ccc(NC(=O)C(=O)Cc2cccc[n+]2[O-])cc1C
inactive: Malme-3M > 100 µM | NCI-H226 > 100 µM | MOLT-4 > 100 µM | OVCAR-4 > 100 µM | ACHN > 100 µM | SN12C > 100 µM | LOX IMVI > 100 µM | SK-MEL-28 > 100 µM | SNB-19 > 100 µM | M14 > 100 µM | M19-MEL > 100 µM | A498 > 100 µM | OVCAR-8 > 100 µM | SNB-75 > 100 µM | CAKI-1 > 100 µM | SF-539 > 100 µM | SR > 100 µM | DMS-114 > 100 µM
